According to patent US12383753B2, “Method and system of sensitizing cancer cells to chemical treatment by plasma based activation” (The George Washington University, priority 2018, dated 2025):
“Also recorded” adds a separate entry of the source.

Tests used:
[1] = tested on: human pancreas adenocarcinoma (PA-TU-8988T) cells; experiment: MTT cell viability assay of cancer cells with or without CAP activation, followed by reactive species treatment; type: cell-based; conditions: for cell viability: 10 μM H2O2 on CAP-activated cells, 12.5 kHz, 1.53 lpm
Description: In this example, human pancreas adenocarcinoma (PA-TU-8988T) cells were used in conjunction with a Dulbecco's modified Eagle's medium (DMEM, 11965-118) from Life Technologies. The DMEM was mixed with 1% (v/v) antibiotic (penicillin and streptomycin) solution (Life Technologies). The media used in the cell culture were composed of DMEM supplemented with 10% (v/v) fetal bovine serum (ThermoFisher Scientific). The cells were cultured in a 96-well plate (61406-081, Corning). 100 μL of the cells-harvesting solution (3×10^4 cells/mL) were seeded in each well. Cancer cells were grown for 1 day under the standard culture condition (a humidified, 37 C, 5% CO2 environment). The media used to culture cells overnight were removed before any experiments were performed.
In the example system 200 in FIG. 2A, basic protocols were provided to determine the activation state of cancer cells. To perform the CAP sensitivity treatment, each well of the well plate 230 was filled with a 50 μL DMEM solution with the growing cells. Each of the cells in the 96-well plate 230 was treated by the CAP jet from the CAP jet device 202 vertically. The gap between the bottom of the 96-well plate 230 and the CAP source is 3 cm in this example. After the CAP treatment, 50 μL of new DMEM was transferred to replace the medium in the wells of the 96-well plate 230 treated by the CAP jet device 202.
As a result, cancer cells in the activation state were obtained when the CAP sensitivity treatment time was longer than 20 seconds. Reactive treatment was applied in the form of new H2O2 − DMEM added to the cells in the well plate 230. To make the new H2O2 − DMEM, 9.8 M H2O2 standard solution (Sigma-Aldrich, 216763) was added to DMEM with a designed concentration. Then, H2O2 − DMEM or NO2 − DMEM was transferred to affect the activated cancer cells in the designed experiments. The cell viability was measured by using MTT assay according to the standard protocols provided by the manufacturer (Sigma-Aldrich, M2128). The 96-well plate 230 was read by an H1 microplate reader manufactured by […] at an absorbance of 570 nm after shaking in the reader for 30 seconds. To perform the data analysis, the measured absorbance at 570 nm was processed to be a relative cell viability by the division of absorbance between the experimental group and the control group.
The CAP treatment and removal of the medium containing reactive species is the basic strategy to obtain the cancer cells in the activated state. Thus, the process for increasing the effectiveness of treating cancer cells with a follow up reactive treatment is as follows. The direct CAP sensitivity treatment (1 min) was first performed on each well of the 96-well plate 230. The cancer cells in the wells were immersed in 50 μL of DMEM. The DMEM was quickly removed (less than a minute) after the CAP sensitivity treatment. Then, the CAP-activated (treated) cancer cells were obtained. The cytotoxicity of H2O2 (10 μM) treatment on the CAP-treated (activated) cancer cells were compared with that on cancer cells without the CAP sensitivity treatment. The H2O2-containing DMEM was made by adding H2O2 standard solution (Sigma-Aldrich, 216763) in DMEM with a designed concentration (10 μM). All cells were cultured for 3 days before the final cell viability assay using a MTT assay (Sigma-Aldrich, M2128). The cell viability assay was performed following the standard protocols provided by the manufacturer. Finally, the absorbance at 570 nm was processed to be a relative cell viability (fold) by the division of absorbance between the experimental group and the control group. In the control group, cancer cells were just cultured in the untreated DMEM.

[2] = tested on: human pancreas adenocarcinoma (PA-TU-8988T) cells; experiment: as above; type: cell-based
[3] = cited from earlier work
[4] = low concentration, CAP-activated cancer cells
[5] = low concentration, same cancer cells without activation

Row | Structure (SMILES) | killing effect (in words) ([1]; 10 μM H2O2, CAP-activated cells) | killing effect (in words) ([1]; 10 μM H2O2, cells without CAP treatment (activation)) | cell viability ([1]; discharge voltage 3.15 kV) [fold] | cell viability ([1]; discharge voltage 3.78 kV) [fold] | cell viability ([1]; discharge voltage 4.67 kV) [fold] | effect on cell viability (in words) ([1]; H2O2 DMEM applied two hours after CAP treatment) | killing effect (in words) [1, 4] | killing effect (in words) [1, 5] | killing effect ([2]; 22 μM H2O2, cells activated by CAP (bars 414 and 444)) [%] | killing effect ([2]; 22 μM H2O2, cells without activation (bars 416 and 446)) | killing of cancer cells (in words) ([2]; 22 μM H2O2-DMEM, cells activated by CAP treatment) | inhibition on the cell viability (in words) ([2]; 22 μM H2O2-DMEM, cells without CAP treatment) | killing effect (in words) ([2]; H2O2 15 μM and 22 μM, CAP-activated cells) | killing effect (in words) ([2]; H2O2-DMEM 15 μM and 22 μM, cells without activation) | concentration range found in CSF [3] [µM]
1 | OO [H2O2] | significant killing effect | will not cause a killing effect; also recorded: does not cause a killing effect | 0.73 | 0.38 | 0.71 | does not have any effect on cell viability | noticeable killing effect | will not cause significant killing effect | ~50 | about 10% | strongly kill | very small inhibition | strong killing effect | did not cause strong killing effect | 
2 | O=NO [NO2 −] |  |  |  |  |  |  | noticeable killing effect | will not cause significant killing effect |  |  |  |  |  |  | 
3 | Cn1nnc2c(C(N)=O)ncn2c1=O [TMZ, Temozolomide] |  |  |  |  |  |  |  |  |  |  |  |  |  |  | 10 to 25
